# From paper PMC10712729, “A Phase I Trial of the Dual MET Kinase/OCT-2 Inhibitor OMO-1 in Metastatic Solid Malignancies Including MET Exon 14 Mutated Lung Cancer” (The Oncologist, 2023)
# Entries after “also recorded” stand apart in the source; their conditions may differ.
# Assays:
# [1] = tested on: MET amplified NSCLC or other MET positive solid tumors; assay: Preliminary efficacy by RECIST v1.1, Module 1 Part B cohort 2 (MET basket); type: in vivo, human; conditions: 5/5 patients, 200 or 250 mg BID
# Description: (§1) The starting dose was 100 mg BID.
# Safety analyses were descriptive.
# [2] = Pharmacokinetics of OMO-1 in plasma, Module 1 Part A; type: in vivo, human
# Description: as §1
# Analysis was performed using PKSolver to define Cmax, trough concentration (Ctrough), AUC∞, AUC0-last, Vd, clearance, elimination half-life (t½), and Tmax of OMO-1.[24] In the paired biopsy analysis, expression of total MET and phosphorylated MET was performed by immunohistochemistry.
# [3] = Phase I safety and tolerability of OMO-1 monotherapy, Module 1 Part A dose escalation (drug-related TEAEs, DLTs, RP2D)
# Description: This study was part of a modular, first-in-patient, openlabel multicenter study of OMO-1, administered orally, mono-therapy, and in combination with EGFR-TKI, in patients with locally advanced, unresectable, or metastatic solid malignancies (study protocol can be). […] Module 1 (OMO-1 monotherapy) consisted of Part A (dose escalation) and Part B (expansion cohorts). Part A assessed the safety and tolerability of ascending doses of OMO-1 given as monotherapy in unselected patients with locally advanced, unresectable, or metastatic malignancies and determined the recommended phase 2 dose (RP2D). Part B assessed the preliminary efficacy of the RP2D of OMO-1 in patients with METex14-positive NSCLC (cohort 1) and patients with MET amplified NSCLC or patients with other MET positive solid tumors, either METex14 or MET amplification (MET basket; cohort 2). The MET status of the tumor was assessed locally by site-specific guidelines. For MET exon 14 skipping mutations next generation sequencing (NGS) was used and for MET amplifications either NGS or fluorescence in situ hybridization (Supplementary 1). Prior treatment with a MET inhibitor was an exclusion criterion.
# OMO-1 was administered orally, twice daily (BID) with a minimal interval of 4-5 h with food in a continuous 21 day/cycle regimen until clinical progression or emergence of significant toxicity. The starting dose was 100 mg BID. The dose was escalated sequentially in cohorts of at least 3 patients using a standard 3 + 3 dose escalation design. […] During the monotherapy dose escalation Module 1 Part A, blood samples were collected for PK analysis throughout the study as per protocol (S1).
# The dose-limiting toxicity (DLT) evaluation period was within the first cycle of treatment; although all events beyond this point were also reviewed at the time of dose escalation to ensure an OLED was chosen as RP2D.
# Safety analyses were descriptive. With respect to primary objectives and endpoints, no specific hypotheses were tested statistically. The primary focus was on determining the safety profile and RP2D, and the identification of a range of biologically active doses and PK of OMO-1 in patients with cancer. Safety, PK, and PD biomarker data were reviewed on an ongoing basis in line with the cohort progression criteria by the Safety Review Committee (SRC).
compound,measurement,setting,value
FC(F)(c1ccc2ncccc2c1)c1nnc2ccc(-c3ccncc3)nn12 [OMO-1],clinical benefit,[1],No clinical benefit of any length; also recorded: no clinical efficacy
same,"plasma exposure as measured by AUC(0-8 h), dose proportionality",[2]; 100 to 400 mg BID,dose-proportional without accumulation
same,AUC(0-8 h),[2]; RP2D of 250 mg BID,5684 ng·h/mL
same,Cmax,[2]; RP2D of 250 mg BID,1372 ng/mL
same,T½,"[2]; oral, patients",2.5 to 3 h
same,median Tmax,"[2]; range across the dose escalation cohorts, second daily dose 4-5 h after first",5 to 7.8 h
same,"increased blood creatinine, drug-related TEAE",[3]; 100 mg BID cohort,no events
same,"Fatigue, proportion of patients","[3]; 100 mg BID cohort, 1 patient",20.0%
same,"Decreased appetite, Drug-related TEAEs, All grades",[3]; 100 mg BID n = 5,1 (20%) n (%)
same,"Dizziness, Drug-related TEAEs, All grades",[3]; 100 mg BID n = 5,1 (20%) n (%)
same,"Fatigue, Drug-related TEAEs, All grades",[3]; 100 mg BID n = 5,1 (20%) n (%)
same,"Headache, Drug-related TEAEs, All grades",[3]; 100 mg BID n = 5,1 (20%) n (%)
same,"Nausea, Drug-related TEAEs, All grades",[3]; 100 mg BID n = 5,2 (40%) n (%)
same,"Nausea, Drug-related TEAEs, Grade ≥3",[3]; 100 mg BID n = 5,1 (20%) n (%)
same,"Nausea, Drug-related TEAEs, SAE",[3]; 100 mg BID n = 5,1 (20%) n (%)
same,"Total n with AE, Drug-related TEAEs, All grades",[3]; 100 mg BID n = 5,5 (100%) n (%)
same,"Total n with AE, Drug-related TEAEs, Grade ≥3",[3]; 100 mg BID n = 5,2 (40%) n (%)
same,"Total n with AE, Drug-related TEAEs, SAE",[3]; 100 mg BID n = 5,2 (40%) n (%)
same,"Vomiting, Drug-related TEAEs, All grades",[3]; 100 mg BID n = 5,1 (20%) n (%)
same,"Vomiting, Drug-related TEAEs, Grade ≥3",[3]; 100 mg BID n = 5,1 (20%) n (%)
same,"Vomiting, Drug-related TEAEs, SAE",[3]; 100 mg BID n = 5,1 (20%) n (%)
same,"Anemia, Drug-related TEAEs, All grades",[3]; 200 mg BID n = 4,2 (50%) n (%)
same,"Anemia, Drug-related TEAEs, Grade ≥3",[3]; 200 mg BID n = 4,1 (25%) n (%)
same,"Blood creatinine ↑, Drug-related TEAEs, All grades",[3]; 200 mg BID n = 4,3 (75%) n (%)
same,"Chills/ influenza like symptoms, Drug-related TEAEs, All grades",[3]; 200 mg BID n = 4,1 (25%) n (%)
same,"Chills/ influenza like symptoms, Drug-related TEAEs, SAE",[3]; 200 mg BID n = 4,1 (25%) n (%)
same,"Decreased appetite, Drug-related TEAEs, All grades",[3]; 200 mg BID n = 4,1 (25%) n (%)
same,"Diarrhoea, Drug-related TEAEs, All grades",[3]; 200 mg BID n = 4,2 (50%) n (%)
same,"Dizziness, Drug-related TEAEs, All grades",[3]; 200 mg BID n = 4,1 (25%) n (%)
same,"Fatigue, Drug-related TEAEs, All grades",[3]; 200 mg BID n = 4,1 (25%) n (%)
same,"Headache, Drug-related TEAEs, All grades",[3]; 200 mg BID n = 4,3 (75%) n (%)
same,"Nausea, Drug-related TEAEs, All grades",[3]; 200 mg BID n = 4,3 (75%) n (%)
same,"Total n with AE, Drug-related TEAEs, All grades",[3]; 200 mg BID n = 4,4 (100%) n (%)
same,"Total n with AE, Drug-related TEAEs, Grade ≥3",[3]; 200 mg BID n = 4,1 (25%) n (%)
same,"Total n with AE, Drug-related TEAEs, SAE",[3]; 200 mg BID n = 4,1 (25%) n (%)
same,"Vomiting, Drug-related TEAEs, All grades",[3]; 200 mg BID n = 4,2 (50%) n (%)
same,"Vomiting, Drug-related TEAEs, Grade ≥3",[3]; 200 mg BID n = 4,1 (25%) n (%)
same,"diarrhea, all grades",[3]; 250 mg BD,14%
same,"nausea, all grades",[3]; 250 mg BD,57%
same,"vomiting, all grades",[3]; 250 mg BD,43%
same,"Anemia, Drug-related TEAEs, All grades",[3]; 250 mg BID n = 7,1 (14%) n (%)
same,"Blood creatinine ↑, Drug-related TEAEs, All grades",[3]; 250 mg BID n = 7,3 (43%) n (%)
same,"Blood creatinine ↑, Drug-related TEAEs, Grade ≥3",[3]; 250 mg BID n = 7,1 (14%) n (%)
same,"Decreased appetite, Drug-related TEAEs, All grades",[3]; 250 mg BID n = 7,1 (14%) n (%)
same,"Diarrhoea, Drug-related TEAEs, All grades",[3]; 250 mg BID n = 7,1 (14%) n (%)
same,"Dizziness, Drug-related TEAEs, All grades",[3]; 250 mg BID n = 7,1 (14%) n (%)
same,"Fatigue, Drug-related TEAEs, All grades",[3]; 250 mg BID n = 7,3 (43%) n (%)
same,"Fatigue, Drug-related TEAEs, Grade ≥3",[3]; 250 mg BID n = 7,1 (14%) n (%)
same,"Nausea, Drug-related TEAEs, All grades",[3]; 250 mg BID n = 7,4 (57%) n (%)
same,"Nausea, Drug-related TEAEs, SAE",[3]; 250 mg BID n = 7,1 (14%) n (%)
same,"Tachycardia, Drug-related TEAEs, All grades",[3]; 250 mg BID n = 7,1 (14%) n (%)
same,"Total n with AE, Drug-related TEAEs, All grades",[3]; 250 mg BID n = 7,7 (100%) n (%)
same,"Total n with AE, Drug-related TEAEs, SAE",[3]; 250 mg BID n = 7,1 (14%) n (%)
same,"Vomiting, Drug-related TEAEs, All grades",[3]; 250 mg BID n = 7,3 (43%) n (%)
same,patients discontinued due to related toxicity,[3]; 350 mg BID and 400 mg BID cohort,4/8
same,"increased blood creatinine, drug-related TEAE",[3]; 350 mg BID cohort,no events
same,"Chills/ influenza like symptoms, Drug-related TEAEs, All grades",[3]; 350 mg BID n = 5,1 (20%) n (%)
same,"Decreased appetite, Drug-related TEAEs, All grades",[3]; 350 mg BID n = 5,1 (20%) n (%)
same,"Dizziness, Drug-related TEAEs, All grades",[3]; 350 mg BID n = 5,1 (20%) n (%)
same,"Fatigue, Drug-related TEAEs, All grades",[3]; 350 mg BID n = 5,3 (60%) n (%)
same,"Headache, Drug-related TEAEs, All grades",[3]; 350 mg BID n = 5,1 (20%) n (%)
same,"Nausea, Drug-related TEAEs, All grades",[3]; 350 mg BID n = 5,1 (20%) n (%)
same,"Tachycardia, Drug-related TEAEs, All grades",[3]; 350 mg BID n = 5,1 (20%) n (%)
same,"Total n with AE, Drug-related TEAEs, All grades",[3]; 350 mg BID n = 5,4 (80%) n (%)
same,"Total n with AE, Drug-related TEAEs, SAE",[3]; 350 mg BID n = 5,1 (20%) n (%)
